Data reported in patent US20130296417A1, “Theaflavin Compositions, Production, and Method to Control Physiological Disorders in Mammals” (JANGSU DEHE BIO-TECH CO., LTD., priority 2010, published 2013).

Tested on: Madin-Darby canine kidney (MDCK) cells
Experiment: Cytotoxicity (CC50) in MDCK cells (Example II)

With `O=C(O[C@@H]1Cc2c(O)cc(O)cc2O[C@@H]1c1cc(O)c(O)c(O)c1)c1cc(O)c(O)c(O)c1` [EGCG, (−)-epigallocatechin-3-gallate] the “CC50” value was greater than 100 µg/mL.
